Source: patent US20090306133A1, “New Acetyl Coenzyme A Carboxylase (ACC) Inhibitors And Uses In Treatments Of Obesity And Diabetes Mellitus - 087” (ASTRAZENECA AB, priority 2007, published 2009)

Assays:
[1] = biological target: Human recombinant Acetyl-CoA Carboxylase 2 (ACC2) (Homo sapiens, UniProt O00763); test: Assay X: ACC2 inhibition, inorganic phosphate (malachite green); assay type: biochemical; settings: Assay X: 37° C., 1.5 h, 5 min pre-incubation
Method: (§1) Human recombinant Acetyl-CoA Carboxylase 1 and Acetyl-CoA Carboxylase 2 (ACC1 and ACC2) were assayed by determining the amount of inorganic phosphate (Pi) generated. Pre-incubation of 15 μL enzyme together with 0.75 μL DMSO+/−compound for 5 min was done before the reaction was initiated by the addition of 10 μL substrate. […] After 1.5 h the reaction was stopped by addition of 74 μL of water followed by extensive mixing, split and transfer of 2×40 μL to a read-plate encompassing 30 μL distilled H2O per well (n=2→n=4). Colour reaction was initiated by addition of 30 μL malachite green reagent per well and allowed 15 min before absorbance reading of the plates at 660 nm. The malachite green reagent was prepared by mixing 16.4 mL ammonium molybdate solution (7.5%), 1.64 mL Tween (11%) with 82 mL Malachite Green/H2SO4-solution (0.7 g Malachite Green to 1000 mL of 10% (v/v) H2SO4).
(§2) All compounds were tested in triplicate at 10 different concentrations. Control compound (0, 50 and 100% effect) was included on each plate. […] Curve fitting was done using the following equation: y=(A+((B−A)/(1+((x/C)̂D)))) where A and B represents the curve bottom (% inhibition) and the total amplitude (% inhibition), respectively, whereas C and D are the apparent IC50 and curve slope, respectively.

[2] = biological target: Human recombinant Acetyl-CoA Carboxylase 1 (ACC1) (Homo sapiens, UniProt Q13085); test: Assay X: ACC1 inhibition, inorganic phosphate (malachite green); assay type: biochemical; settings: Assay X: 37° C., 1.5 h, 5 min pre-incubation
Method: as §1, §2

Sequence of Human recombinant Acetyl-CoA Carboxylase 2 (ACC2) (O00763 whole entry): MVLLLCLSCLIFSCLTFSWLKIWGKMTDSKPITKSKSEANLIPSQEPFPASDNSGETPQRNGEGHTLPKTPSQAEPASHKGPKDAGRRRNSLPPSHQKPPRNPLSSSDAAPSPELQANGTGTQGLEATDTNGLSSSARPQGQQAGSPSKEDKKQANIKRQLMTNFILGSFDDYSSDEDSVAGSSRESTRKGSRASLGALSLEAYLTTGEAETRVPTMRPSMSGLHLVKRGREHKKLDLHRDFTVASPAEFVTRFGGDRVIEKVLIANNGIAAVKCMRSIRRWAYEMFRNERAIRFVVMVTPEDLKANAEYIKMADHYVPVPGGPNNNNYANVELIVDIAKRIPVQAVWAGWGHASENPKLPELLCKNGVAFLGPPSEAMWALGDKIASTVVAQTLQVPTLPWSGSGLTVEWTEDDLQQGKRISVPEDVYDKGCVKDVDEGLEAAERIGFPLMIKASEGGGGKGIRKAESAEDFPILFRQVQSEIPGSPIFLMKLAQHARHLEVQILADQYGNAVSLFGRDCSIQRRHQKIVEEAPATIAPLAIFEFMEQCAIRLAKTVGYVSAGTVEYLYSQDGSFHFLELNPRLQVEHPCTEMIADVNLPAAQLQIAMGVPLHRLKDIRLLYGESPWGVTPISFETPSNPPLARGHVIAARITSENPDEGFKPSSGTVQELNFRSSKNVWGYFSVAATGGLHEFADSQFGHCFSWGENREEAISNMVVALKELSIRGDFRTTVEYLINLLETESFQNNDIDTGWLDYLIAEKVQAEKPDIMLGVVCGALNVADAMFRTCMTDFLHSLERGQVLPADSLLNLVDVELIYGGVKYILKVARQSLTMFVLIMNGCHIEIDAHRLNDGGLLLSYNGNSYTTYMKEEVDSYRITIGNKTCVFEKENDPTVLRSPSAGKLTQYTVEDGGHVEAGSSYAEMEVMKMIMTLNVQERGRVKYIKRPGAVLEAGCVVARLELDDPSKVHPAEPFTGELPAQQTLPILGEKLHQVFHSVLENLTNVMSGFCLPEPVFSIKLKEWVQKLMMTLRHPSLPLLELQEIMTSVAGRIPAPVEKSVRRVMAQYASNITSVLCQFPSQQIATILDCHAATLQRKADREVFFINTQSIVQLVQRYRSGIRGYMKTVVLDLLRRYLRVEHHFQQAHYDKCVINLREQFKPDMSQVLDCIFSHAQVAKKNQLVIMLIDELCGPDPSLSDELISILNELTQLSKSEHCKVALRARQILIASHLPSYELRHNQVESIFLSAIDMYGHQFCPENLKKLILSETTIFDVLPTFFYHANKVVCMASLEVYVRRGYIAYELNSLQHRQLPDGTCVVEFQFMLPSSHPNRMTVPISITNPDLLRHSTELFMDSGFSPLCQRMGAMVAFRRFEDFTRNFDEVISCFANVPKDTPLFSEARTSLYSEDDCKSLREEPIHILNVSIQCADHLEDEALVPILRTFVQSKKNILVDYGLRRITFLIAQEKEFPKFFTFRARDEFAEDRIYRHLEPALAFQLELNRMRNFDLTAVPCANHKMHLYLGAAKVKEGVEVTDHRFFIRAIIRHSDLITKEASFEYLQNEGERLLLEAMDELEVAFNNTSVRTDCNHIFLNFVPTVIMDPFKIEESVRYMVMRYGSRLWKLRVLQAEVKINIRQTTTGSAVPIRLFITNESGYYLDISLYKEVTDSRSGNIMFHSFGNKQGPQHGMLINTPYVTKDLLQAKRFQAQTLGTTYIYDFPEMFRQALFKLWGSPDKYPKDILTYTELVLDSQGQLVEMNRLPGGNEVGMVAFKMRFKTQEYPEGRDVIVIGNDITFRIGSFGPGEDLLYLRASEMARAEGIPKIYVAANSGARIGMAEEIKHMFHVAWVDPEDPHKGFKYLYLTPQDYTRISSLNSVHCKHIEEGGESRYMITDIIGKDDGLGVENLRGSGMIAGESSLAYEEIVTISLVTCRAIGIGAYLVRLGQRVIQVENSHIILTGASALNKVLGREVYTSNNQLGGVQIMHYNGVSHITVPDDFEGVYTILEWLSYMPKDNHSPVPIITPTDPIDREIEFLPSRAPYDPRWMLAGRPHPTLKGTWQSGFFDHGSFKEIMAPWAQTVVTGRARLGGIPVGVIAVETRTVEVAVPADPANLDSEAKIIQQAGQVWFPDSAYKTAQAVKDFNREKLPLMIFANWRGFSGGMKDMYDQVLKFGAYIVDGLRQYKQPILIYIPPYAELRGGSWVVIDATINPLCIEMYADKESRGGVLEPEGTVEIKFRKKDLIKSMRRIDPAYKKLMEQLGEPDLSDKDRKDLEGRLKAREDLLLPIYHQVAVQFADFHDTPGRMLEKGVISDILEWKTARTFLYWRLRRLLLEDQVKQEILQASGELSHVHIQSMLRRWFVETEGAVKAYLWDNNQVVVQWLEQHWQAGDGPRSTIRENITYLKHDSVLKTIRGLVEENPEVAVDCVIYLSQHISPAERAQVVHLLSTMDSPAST

SMILES | IC50 [1] [nM] | IC50 [2] [nM]
CN(C)CCOc1ccc(-c2cc(C(=O)NC[C@H]3CC[C@H](CNC(=O)O[C@H]4CCOC4)CC3)c3ccccc3n2)cn1 [Example 196, (3S)-Tetrahydrofuran-3-yl {[trans-4-({[(2-{6-[2-(dimethylamino)ethoxy]pyridin-3-yl}quinolin-4-yl)carbonyl]amino}methyl)cyclohexyl]methyl}carbamate] | 920 | 3480
CN1CCN(CCOc2ccc(-c3cc(C(=O)NC[C@H]4CC[C@H](CNC(=O)OC(C)(C)C)CC4)c4ccccc4n3)cn2)CC1 [Example 179, tert-Butyl{[trans-4-({[(2-{6-[2-(4-methylpiperazin-1-yl)ethoxy]pyridin-3-yl}quinolin-4-yl)carbonyl]amino}-methyl)cyclohexyl]-methyl}carbamate] | 550 | 1800
CN(C)CCOC1CN(c2cc(C(=O)NC[C@H]3CC[C@H](CNC(=O)OC(C)(C)C)CC3)c3ccccc3n2)C1 [Example 238, tert-Butyl {[trans-4-({[(2-{3-[2-(dimethylamino)ethoxy]azetidin-1-yl}quinolin-4-yl)carbonyl]amino}methyl)cyclohexyl]methyl}carbamate] | 630 | 4450
CC(C)(C)OC(=O)NC[C@H]1CC[C@H](CNC(=O)c2cc(-c3ccc(NC(CO)CO)nc3)nc3ccccc23)CC1 [Example 164, tert-Butyl({trans-4-[({[2-(6-{[2-hydroxy-1-(hydroxymethyl)-ethyl]amino}pyridin-3-yl)quinolin-4-yl]-carbonyl}amino)methyl]cyclohexyl}methyl)-carbamate] | 330 | 1260
CN1CCN(C2CCN(c3cc(C(=O)NC[C@H]4CC[C@H](CNC(=O)OC(C)(C)C)CC4)c4ccccc4n3)CC2)CC1 [Example 214, tert-Butyl[(trans-4-{[({2-[4-(4-methylpiperazin-1-yl)piperidin-1-yl]-quinolin-4-yl}carbonyl)amino]methyl}cyclohexyl)methyl]-carbamate] | 2240 | 3310
CN(C)C(=O)COC1CCN(c2cc(C(=O)NC[C@H]3CC[C@H](CNC(=O)OC(C)(C)C)CC3)c3ccccc3n2)CC1 [Example 210, tert-Butyl {[trans-4-({[(2-{4-[2-(dimethylamino)-2-oxoethoxy]piperidin-1-yl}quinolin-4-yl)carbonyl]amino}methyl)cyclohexyl]methyl}carbamate] | 2040 | 13100
CC(C)(C)OC(=O)NC[C@H]1CC[C@H](CNC(=O)c2cc(-c3ccc(OCCO)nc3)nc3ccccc23)CC1 [Example 174, tert-Butyl[(trans-4-{[({2-[6-(2-hydroxyethoxy)-pyridin-3-yl]-quinolin-4-yl}-carbonyl)amino]-methyl}cyclohexyl)methyl]carbamate] | 340 | 1000
CN1CCN(c2ccc(-c3cc(C(=O)NC[C@H]4CC[C@H](CNC(=O)OCC5CCCO5)CC4)c4ccccc4n3)cn2)CC1 (stereo partly drawn) [Example 127, Tetrahydrofuran-2-ylmethyl[(trans-4-{[({2-[6-(4-methylpiperazin-1-yl)pyridin-3-yl]quinolin-4-yl}carbonyl)amino]methyl}cyclohexyl)methyl]carbamate] | 880 | 3780

Stronger by IC50 [1], values ahead:

IC50 [1] [nM] | IC50 [2] [nM] | SMILES
230 | 680 | CC(C)(C)OC(=O)NC[C@H]1CC[C@H](CNC(=O)c2cc(-c3ccc(N4CC(O)C4)nc3)nc3ccccc23)CC1 [Example 168, tert-Butyl[(trans-4-{[({2-[6-(3-hydroxyazetidin-1-yl)-pyridin-3-yl]quinolin-4-yl}carbonyl)amino]-methyl}cyclohexyl)methyl]carbamate]
230 | 1630 | COCCN(C)CCC1CCN(c2cc(C(=O)NC[C@H]3CC[C@H](CNC(=O)OC(C)(C)C)CC3)c3ccccc3n2)CC1 [Example 227, tert-Butyl({trans-4-[({[2-(4-{2-[(2-methoxyethyl)(methyl)-amino]ethyl}piperidin-1-yl)quinolin-4-yl]carbonyl}amino)-methyl]cyclohexyl}-methyl)carbamate]
180 | 1400 | CN(CCF)CCC1CCN(c2cc(C(=O)NC[C@H]3CC[C@H](CNC(=O)OC(C)(C)C)CC3)c3ccccc3n2)CC1 [Example 245, tert-Butyl ({trans-4-[({[2-(4-(2-((2-fluoroethyl)(methyl)amino)ethyl}piperidin-1-yl)quinolin-4-yl]carbonyl}amino)methyl]cyclohexyl}methyl)carbamate]
140 | 1090 | CN(C)CC(F)CC1CCN(c2cc(C(=O)NC[C@H]3CC[C@H](CNC(=O)OC(C)(C)C)CC3)c3ccccc3n2)CC1 (stereo partly drawn) [Example 237, tert-Butyl {[trans-4-({[(2-{4-[3-(dimethylamino)-2-fluoropropyl]piperidin-1-yl}quinolin-4-yl)carbonyl]amino}methyl)cyclohexyl]methyl}carbamate]
140 | 290 | CC(C)(C)OC(=O)NC[C@H]1CC[C@H](CNC(=O)c2cc(-c3ccc(N4CCOC(CO)C4)nc3)nc3ccccc23)CC1 (relative stereo) [Example 171, tert-Butyl{[trans-4-({[(2-{6-[2-(hydroxymethyl)morpholin-4-yl]-pyridin-3-yl}quinolin-4-yl)carbonyl]amino}-methyl)cyclohexyl]-methyl}carbamate]
130 | 973 | CC(C)(C)OC(=O)NC[C@H]1CC[C@H](CNC(=O)c2cc(N3CCC(CC(O)CN4CCCC4)CC3)nc3ccccc23)CC1 (relative stereo) [Example 206, tert-butyl [(trans-4-{[({2-[4-(2-hydroxy-3-pyrrolidin-1-ylpropyl)piperidin-1-yl]quinolin-4-yl}carbonyl)amino]methyl}cyclohexyl)methyl]carbamate]
120 | 1190 | CN(C)CCC1CCN(c2cc(C(=O)NC[C@H]3CC[C@H](CNC(=O)OCC(C)(C)C)CC3)c3ccccc3n2)CC1 [Example 212, 2,2-Dimethylpropyl {[trans-4-({[(2-{4-[2-(dimethylamino)ethyl]piperidin-1-yl}quinolin-4-yl)carbonyl]amino}methyl)cyclohexyl]methyl}carbamate]
110 | 950 | CC(C)(C)OC(=O)NC[C@H]1CC[C@H](CNC(=O)c2cc(N3CCC(CCN4CCC4)CC3)nc3ccccc23)CC1 [Example 234, tert-Butyl [(trans-4-{[({2-[4-(2-azetidin-1-ylethyl)piperidin-1-yl]quinolin-4-yl}carbonyl)amino]methyl}cyclohexyl)methyl]carbamate]
100 | 1020 | CC(C)(C)OC(=O)NC[C@H]1CC[C@H](CNC(=O)c2cc(N3CCC(CCN4CC(O)C4)CC3)nc3ccccc23)CC1 [Example 233, tert-Butyl {[trans-4-({[(2-{4-[2-(3-hydroxyazetidin-1-yl)ethyl]piperidin-1-yl}quinolin-4-yl)carbonyl]amino}methyl)cyclohexyl]methyl}carbamate]
70 | 220 | CN(C)[C@H]1CCN(c2ccc(-c3cc(C(=O)NC[C@H]4CC[C@H](CNC(=O)OC(C)(C)C)CC4)c4ccccc4n3)cn2)C1 [Example 160, tert-Butyl{[trans-4-({[(2-{6-[(3S)-3-(dimethylamino)-pyrrolidin-1-yl]pyridin-3-yl}quinolin-4-yl)-carbonyl]amino}methyl)cyclohexyl]methyl}carbamate]
